According to patent publication US20010056085A1, “Methods of using vesicant drug formulations” (priority 1996, published 2001):
Read-outs that look alike come from different tables or passages of the source.

Experiment: Half-life of ADR destruction by UVA light in the presence of test compounds (decrease in absorbance at 480 nm)
Format: physicochemical
[1] = UVA light, 100 μM test compound with 0.5 μM riboflavin
[2] = UVA light, 100 μM test compound alone

Row | SMILES | Half-Life of ADR Destruction, 100 μM Test Compound and 0.5 μM Riboflavin [1] | Half-Life of ADR Destruction, 100 μM Test Compound [2] | further results
1 | O=C(O)c1ccc(O)cc1 [4-Hydroxy Benzoic Acid] | 100.3 min | – | –
2 | CC(=O)Oc1c[nH]c2ccccc12 [3-Acetoxyindole] | 5.90 min | 25.1 min | –
3 | Nc1ccc2[nH]ccc2c1 [5-Amino Indole] | 100.3 min | – | –
4 | OCCCCc1ccccc1 [4-Phenyl-1-Butanol] | 43.0 min | 43.0 min | –
5 | N[C@@H](Cc1ccc2ccccc2c1)C(=O)O [3-(2-Naphthyl)alanine] | 27.4 min | – | –
6 | O=C1c2ccccc2-c2ccccc21 [Compound 9-Fluorenone, 9-Fluorenone] | 43.0 min | – | –
7 | NCCc1ccc(O)cc1 [4-Hydroxy Phenethylamine (Tyramine), 4-Hydroxy Phenethylamine] | 33.5 min | – | –
8 | O=C(O)Cc1ccc2ccccc2c1 [Naphthalene-2-acetic acid] | 30.1 min | 75.3 min | –
9 | COc1cc(OC)c(OC)cc1C=CC(=O)O [2,4,5-Trimethoxy Cinnamic Acid] | 18.8 min | – | –
10 | O=c1[nH]c(=O)c2[nH]cnc2[nH]1 [Xanthine] | 16.7 min | 50.2 min | –
11 | Nc1ccc(N)c(S(=O)(=O)O)c1 [2,5-Diamino Benzene sulfonic acid] | 27.4 min | – | –
12 | O=C(O)Cc1c[nH]c2ccc(O)cc12 [5-Hydroxyindole-3-acetic acid] | 150.5 min | – | –
13 | COc1ccc2[nH]c(C)c(CC(=O)O)c2c1 [5-Methoxy-2-methylindole-3-acetic acid] | 4.78 min | 25.1 min | –
14 | O=C(c1ccccc1)c1ccccn1 [2-Benzoylpyridine] | 100.3 min | 100.3 min | –
15 | COc1cc2ccc(=O)oc2cc1OC [6,7-Dimethoxycoumarin] | – | 21.5 min | –
16 | Cc1c[nH]c(C)c1 [2,4-Dimethyl Pyrrole] | 20.1 min | – | –
17 | O=C(O)CCCc1ccccc1 [4-Phenyl Butyric Acid] | 33.5 min | 43.0 min | –
18 | COC(=O)c1ccc(N)cc1 [Methyl-4-aminobenzoate] | 10.8 min | – | –
19 | CC(=O)c1ccc(O)cc1 [4′-Hydroxyacetophenone] | 50.2 min | 50.2 min | –
20 | CC=Cc1ccccc1O [2-Propenyl Phenol] | – | – | Half-Life of ADR Destruction, 100 μM Test Compound: 50.2 min
21 | O=C(O)Cc1ccc(O)cc1 [4-Hydroxy Phenylacetic Acid] | 75.3 min | – | –

Row | SMILES | Half-Life of ADR Destruction, 100 μM Test Compound and 0.5 μM Riboflavin [1] | Half-Life of ADR Destruction, 100 μM Test Compound [2] | further results
22 | Nc1ccccc1C(=O)CC(N)C(=O)O (stereo not shown) [Kynurenine] | 75.3 min | – | –
23 | NC1c2ccccc2-c2ccccc21 [9-Amino Fluorene] | 50.2 min | 75.3 min | –
24 | Nc1ccc(C(=O)c2cccc(N)c2)cc1 [3,4′-Diamino-benzophenone] | 15.8 min | – | –
25 | O=C(O)c1cc2ccccc2oc1=O [Coumarin-3-carboxylic acid] | 21.5 min | 23.2 min | –
26 | Nc1ccc(O)c(C(=O)O)c1 [3-Amino-6-Hydroxy Benzoic Acid] | 301.0 min | – | –
27 | O=C(O)/C=C/c1c[nH]c2ccccc12 [trans-3-Indoleacrylic acid] | 6.84 min | – | –
28 | COc1ccc2c(C(=O)C(N)=O)c[nH]c2c1 [6-Methoxy-3-indoleglyoxylamide] | 30.1 min | 75.3 min | –
29 | O=C(O)CCCc1ccc2ccccc2c1 [4-(2-Naphthyl)butyric acid] | 15.1 min | 43.0 min | –
30 | COc1ccc(C=O)c2ccccc12 [4-Methoxy-1-naphthaldehyde] | 1.19 min | 1.15 min | –
31 | Cc1[nH]c2ccccc2c1CC(=O)O [2-Methylindole-3-acetic acid] | 4.57 ± 2.92 min | – | –
32 | Oc1ccc2c(c1)[nH]c1ccccc12 [2-Hydroxy Carbazole] | – | – | Half-Life of ADR Destruction, 100 μM Test Compound and 0.5 μM Riboflavin (UVA light, with 0.5 μM riboflavin, +4% DMSO): 75.3 ± 35.4 min
33 | O=C(Oc1ccc2[nH]ccc2c1)c1ccccc1 [5-Benzoyloxy Indole] | 43.0 min | – | –
34 | Nc1cccc(OCc2ccccc2)c1 [3-Benzyloxyaniline] | – | – | Half-Life of ADR Destruction, 100 μM Test Compound: 43.0 min; Half-Life of ADR Destruction, 100 μM Test Compound and 0.5 μM Riboflavin: 17.7 min
35 | COc1ccccc1CN [2-Methoxy Benzylamine] | 43.0 min | – | –
36 | Cc1cccc2[nH]ccc12 [4-Methyl Indole] | 18.7 ± 4.0 min | – | –
37 | COc1cccc(N)c1 [3-Methoxy Aniline] | 30.1 min | – | –
38 | OCCCc1ccccc1 [3-Phenyl-1-Propanol] | 43.0 min | 50.2 min | –
39 | Nc1cccc(C(=O)O)c1 [3-Amino Benzoic Acid] | 16.7 min | – | –
40 | c1ccc2c(c1)CCN2 [Indoline] | – | – | Half-Life of ADR Destruction, 100 μM Test Compound and 0.5 μM Riboflavin: 75.3 min
41 | Nc1ccc(C[C@H](N)C(=O)O)cc1 [4-Amino Phenylalanine] | 7.65 ± 5.46 min | 55.2 ± 7.1 min | –
42 | O=C(O)c1cccc2c1C(=O)c1ccccc1-2 [9-Fluorenone-1-carboxylic acid] | 43.0 min | 43.0 min | –

Row | SMILES | Half-Life of ADR Destruction, 100 μM Test Compound and 0.5 μM Riboflavin [1] | Half-Life of ADR Destruction, 100 μM Test Compound [2] | further results
43 | O=C(O)C(C(=O)O)c1ccsc1 [Thiophene-3-malonic acid] | 43.0 min | – | –
44 | COc1ccccc1C=CC=O [2-Methoxy Cinnamaldehyde] | 50.2 min | – | –
45 | O=C(O)c1cccc2c1-c1ccccc1C2=O [9-Fluorenone-4-carboxylic acid] | 43.0 min | 50.2 min | –
46 | NCC(O)c1ccc(O)cc1 (stereo not drawn) [4-Hydroxy-β-hydroxy Phenethylamine] | 50.2 min | – | –
47 | Cn1ccc2ccccc21 [N-ω-methyl-indole] | 20.1 min | – | –
48 | CC(C(=O)O)c1ccc(C(=O)c2ccccc2)s1 (stereo not shown) [Tiaprofenic Acid, 2-Benzoyl-5-(x-methyl)-thiopheneacetic acid, reference compound] | 3.24 min | 3.20 min | –
49 | O=C1CC(c2ccccc2)Oc2ccccc21 (stereo not shown) [2-Phenylchromanone (Flavanone), 2-Phenylchromanone] | 50.2 min | – | –
50 | Cn1cccc1 [1-Methyl Pyrrole] | 27.4 min | – | –
51 | CCCCc1ccccc1N [2-Butyl Aniline] | 10.2 min | – | –
52 | O=C1c2ccc(S(=O)(=O)O)cc2C(=O)c2ccc(S(=O)(=O)O)cc21 [Anthraquinone-2,6-disulfonic acid] | 0.283 min | 0.275 min | –
53 | OCCOc1ccc2ccccc2c1 [2-(2-naphthyloxy) Ethanol] | 2.95 min | 30.1 min | –
54 | Nc1ccc(CO)cc1 [4-Amino Benzyl Alcohol] | 27.4 min | – | –
55 | O=C(O)CCc1ccc(O)cc1 [3-(4-Hydroxyphenyl) Propionic Acid] | 75.3 min | – | –
56 | NC(C(=O)O)c1ccc(O)cc1 (stereo not shown) [4-Hydroxy Phenylglycine] | 24.2 ± 19.0 min | – | –
57 | CC(C(=O)O)c1ccc2c(c1)[nH]c1ccc(Cl)cc12 (stereo not drawn) [6-Chlro-α-methyl-carbazole-2-acetic acid, reference compound] | 25.6 ± 11.2 min | – | –
58 | COc1ccc2cc(CC(=O)O)ccc2c1 [6-Methoxynaphthalene-2-acetic acid] | 5.38 min | 17.7 min | –
59 | CC(C(=O)O)c1ccc(-c2ccccc2)c(F)c1 (stereo not drawn) [Flurbiprofen, 4-Phenyl-3-Fluoro-α-Methyl Phenylacetic Acid, reference compound] | 50.2 min | 75.3 min | –
60 | O=C(c1ccccc1)c1ccncc1 [4-Benzoylpyridine] | 11.6 min | 17.2 ± 1.9 min | –
61 | CN(C)c1ccc(CN)cc1 [4-(Dimethylamino) Benzylamine] | 43.0 min | – | –
62 | COc1ccc(C=CC(=O)O)cc1OC [3,4-Dimethoxy Cinnamic Acid] | 5.68 min | 43.0 min | –
63 | Nc1cc(N)cc(C(=O)O)c1 [3,5-Diamino Benzoic Acid] | 75.3 min | – | –
